Laboratory results as given in patent US6218405A, “Heteroarylsulfonamide derivatives and pharmaceutical compositions containing them” (KNOLL Aktiengesellschaft, priority 1996, dated 2001).

Legend:
5-HT1A receptors = molecular target: T1, 5-HT1A receptors (Rattus norvegicus, UniProt P19327); test: 5-HT1A receptor binding: displacement of [3H]8-hydroxy-2-(dipropylamino)tetralin in rat hippocampal tissue; parameters: species or system male Charles River CD rats; settings: 0.5 h, 10^-6 M, [3H]-OH-DPAT 2 nM, 25° C., 30 minutes, read-out: % displacement at 10^-6 M, 5-HT1A (column headed Ki (nM) value for 5-HT1A)
T1 construct: Hippocampal tissue from the brains of male Charles River CD rats; from tissue; host or cells: hippocampal tissue from brains of male Charles River CD rats
T1 sequence (P19327 1-422): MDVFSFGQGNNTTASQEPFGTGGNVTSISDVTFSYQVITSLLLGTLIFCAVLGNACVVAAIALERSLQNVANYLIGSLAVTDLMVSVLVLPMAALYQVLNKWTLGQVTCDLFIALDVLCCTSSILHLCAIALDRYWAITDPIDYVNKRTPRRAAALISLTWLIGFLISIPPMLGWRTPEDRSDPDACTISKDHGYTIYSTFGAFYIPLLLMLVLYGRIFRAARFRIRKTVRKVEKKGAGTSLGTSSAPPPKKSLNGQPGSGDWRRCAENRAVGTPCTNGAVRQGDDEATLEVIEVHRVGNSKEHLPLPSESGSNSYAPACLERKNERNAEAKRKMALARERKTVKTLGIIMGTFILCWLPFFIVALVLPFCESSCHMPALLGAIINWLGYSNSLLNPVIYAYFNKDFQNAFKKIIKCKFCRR
Procedure: Hippocampal tissue from the brains of male Charles River CD rats weighing between 150-250 g were homogenised in ice-cold 50 mM Tris-HCl buffer (pH 7.7) when measured at 25° C., 1:40 w/v) and centrifuged at 30,000 g at 4° C. for 10 minutes. The pellet was rehomogenised in the same buffer, incubated at 37° C. for 10 minutes and centrifuged at 30,000 g at 4° C. for 10 minutes. The final pellet was resuspended in 50 mM Tris-HCl buffer (pH 7.7) containing 4 mM CaCl2, 0.1% L-ascorbic acid and 10 μM pargyline hydrochloride (equivalent to 6.25 mg wet weight of tissue/ml) and used immediately in the binding assay. Aliquots (400 μl; equivalent to 2.5 mg wet weight of tissue/tube) of this suspension were added to tubes containing the ligand (50 μl; 2 nM) and distilled water (50 μl; total binding) or 5-HT (50 μl; […]; non-specific binding) or test compound (50 μl; at a single concentration of 10^-6 M or at 10 concentrations ranging from 10^-11 -10^-3 M). The ligand was [^3 H]8-hydroxy-2-(dipropylamino)tetralin ([^3 H]-OH-DPAT) and the mixture was incubated at 25° C. for 30 minutes before the incubation was terminated by rapid filtration.
The filters were washed with ice-cold Tris-HCl buffer and dried. The filters were punched out into vials, scintillation fluid added and radioactivity determined by liquid scintillation counting. The percentage displacement of specific binding of the tritiated ligand was calculated for the single concentration (10^-6 M) of test compound. Displacement curves were then produced for those compounds which displaced ≥50% of specific binding of the tritiated ligand at 10^-6 M using a range of concentrations of the compound. The concentration which gave 50% inhibition of specific binding (IC50) was obtained from the curve. The inhibition coefficient Ki was then calculated using the formula [formula]
(§1) in which [ligand] is the concentration of the tritiated ligand used and KD is the equilibrium dissociation constant for the ligand.
(§2) The % figures in Table 1 are for % displacement at 10^-6 M.

[1] = system: D2-like dopamine receptors; test: D2-like dopamine receptor binding: displacement of tritiated (S)-sulpiride in rat striatal tissue; parameters: species or system male Charles River CD rats; settings: tritiated (S)-sulpiride 1 nM, 4° C., 40 minutes
Procedure: Striatal tissue from the brains of male Charles River CD rats weighing between 140-250 g were homogenised in ice-cold 50 mM Tris-HCl buffer (pH 7.7 when measured at 25° C.) and centrifuged at 40,000 g for 10 minutes. The pellet was resuspended in Tris salts buffer (50 mM Tris-HCl buffer containing 120 mM NaCl, 5 mM KCl, 2 mM CaCl2 and 1 mM MgCl2 with the addition of 6 mM ascorbic acid; pH 7.7 when measured at 25° C.), and again centrifuged at 40,000 g for 10 minutes. The final pellet was stored at -80° C. Before each test the pellet was resuspended in Tris salts buffer (equivalent to 2 mg wet weight of tissue/ml). Aliquots (720 μl; equivalent to 1.44 mg wet weight of tissue/tube) of this suspension were then added to tubes containing the ligand (40 μl; 1 nM) and Tris salts buffer (40 μl; total binding) or spiroperidol (40 μl; 10 nM; non-specific binding) or test compound (40 μl; at a single concentration of 10^-6 M or at 6 concentrations ranging from 10^-11 -10^-4 M). The ligand was tritiated (S)-sulpiride and the mixture was incubated at 4° C. for 40 minutes before the incubation was terminated by rapid filtration.
The filters were washed with ice-cold Tris-HCl buffer and dried. The filters were punched out in to vials, scintillation fluid added and were left for about 20 hours before being counted by scintillation spectrophotometry. The percentage displacement of specific binding of the tritiated ligand was calculated for the single concentration (10^-6 M) of test compound. Displacement curves were then produced over a range of concentrations for those compounds which displaced ≥50% of specific binding of the tritiated ligand at 10^-6 M. The concentration which gave a 50% inhibition of specific binding (IC50) was obtained from the curve. The inhibition coefficient Ki was then calculated using the formula [formula]
as §1, §2

Row | inhibition at 1 µM (5-HT1A receptors) [%] | % displacement at 10^-6 M, D2-like (column headed Ki (nM) value for D2-like) [1] [%] | SMILES
1 | 98 | 106 | O=S(=O)(NCC1CCN(C[C@H]2COc3ccc4scc(Cl)c4c3O2)CC1)c1ccccn1 [Example 1, (S)-N{[1-(9-chloro-2,3-dihydrothieno[3,2-f][1,4]benzodioxin-2-ylmethyl)piperid-4-yl]methyl}pyridine-2-sulphonamide]
2 | 99 | 105 | O=S(=O)(NCC1CCN(C[C@H]2COc3ccc4[nH]ccc4c3O2)CC1)c1ccccn1 [Example 2, (S)-N-{[1-(2,3-dihydro-7H-1,4-dioxino[2,3-e]indol-2-ylmethyl)piperid-4-yl]methyl}pyridine-2-sulphonamide]
3 | 97 | 105 | CC(=O)Nc1ccc(S(=O)(=O)NCC2CCN(C[C@H]3COc4ccc5[nH]ccc5c4O3)CC2)cc1 [Example 3, (S)-4-acetamido-N-{[1-(2,3-dihydro-7H-1,4-dioxino[2,3-e]indol-2-ylmethyl)piperid-4-yl]methyl}benzenesulphonamide]
